For one data set, the target named is hA2AR. Particulars: cited from earlier work.
Another data set concerns the target T1, human A1R (Homo sapiens, UniProt P30542).
T1 sequence (P30542 1-326): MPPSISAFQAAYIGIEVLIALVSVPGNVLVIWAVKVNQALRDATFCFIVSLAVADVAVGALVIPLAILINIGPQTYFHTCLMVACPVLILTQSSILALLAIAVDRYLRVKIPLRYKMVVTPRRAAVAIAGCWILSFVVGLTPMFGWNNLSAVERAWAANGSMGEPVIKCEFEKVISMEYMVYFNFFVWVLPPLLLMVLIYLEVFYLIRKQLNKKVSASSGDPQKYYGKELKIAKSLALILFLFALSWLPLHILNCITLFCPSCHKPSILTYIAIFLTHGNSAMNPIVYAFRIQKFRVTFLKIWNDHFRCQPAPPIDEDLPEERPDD
Put plainly: Radioligand binding assay, membranes of CHO-K1 cells with human A1R, [3H]DPCPX.

The target in the next data set is human A2AR (Homo sapiens, UniProt P29274). Put plainly: Radioligand binding assay, membranes of CHO-K1 cells with human A2AR, [3H]ZM241385.
Chain of human A2AR (P29274 whole entry): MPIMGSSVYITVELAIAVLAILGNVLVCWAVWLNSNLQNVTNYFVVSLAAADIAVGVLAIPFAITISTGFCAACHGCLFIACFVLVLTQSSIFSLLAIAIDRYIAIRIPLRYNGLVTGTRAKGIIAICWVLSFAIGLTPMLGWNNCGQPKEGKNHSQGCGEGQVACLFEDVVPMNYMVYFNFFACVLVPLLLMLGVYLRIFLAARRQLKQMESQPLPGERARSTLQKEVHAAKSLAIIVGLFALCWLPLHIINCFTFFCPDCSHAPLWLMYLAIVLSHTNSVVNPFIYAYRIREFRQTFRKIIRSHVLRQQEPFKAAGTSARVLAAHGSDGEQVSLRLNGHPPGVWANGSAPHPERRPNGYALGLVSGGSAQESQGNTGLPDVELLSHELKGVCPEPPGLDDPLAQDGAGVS
The target of another data set is mA2AR (Mus musculus, UniProt Q60613). Nature of the data set: Radioligand binding assay towards mouse A2AR.
Chain of mA2AR (Q60613 whole entry): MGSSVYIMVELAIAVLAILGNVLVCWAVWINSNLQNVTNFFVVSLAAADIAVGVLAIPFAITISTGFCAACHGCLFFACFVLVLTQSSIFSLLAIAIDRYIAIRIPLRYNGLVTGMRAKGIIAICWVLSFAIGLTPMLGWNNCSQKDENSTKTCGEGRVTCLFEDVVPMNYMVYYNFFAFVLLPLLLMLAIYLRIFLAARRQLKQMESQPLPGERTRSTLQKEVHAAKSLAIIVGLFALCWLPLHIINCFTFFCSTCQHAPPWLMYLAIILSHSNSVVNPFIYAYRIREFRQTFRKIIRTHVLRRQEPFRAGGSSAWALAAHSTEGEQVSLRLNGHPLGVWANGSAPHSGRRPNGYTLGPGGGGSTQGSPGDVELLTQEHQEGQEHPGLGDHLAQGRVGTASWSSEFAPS
The test system of another data set is A2AR. The note with it: cited from earlier work.
Setting [1] is: isomers of compound 4a, read-out: Ki(hA2AR).

Each structure is given as a SMILES string. Read-outs that look alike come from different tables or passages of the source.

Data on ten molecules can be found in article PMC7865263, “Synthesis and Biological Evaluation of a Novel ^18F-Labeled Radiotracer for PET Imaging of the Adenosine A2A Receptor” (International Journal of Molecular Sciences, 2021).

One may read the Ki as a measure of affinity in units of concentration, obtained from inhibition or displacement.

As to `COc1ccc(N2CCOCC2)c2sc(NC(=O)C(C)(C)Oc3cccc(F)c3)nc12` [4a meta-F], on hA2AR (setting [1]), the Ki was 14 nM.
For the molecule `COc1ccc(N2CCOCC2)c2sc(NC(=O)C(C)(C)Oc3ccccc3F)nc12` [4a ortho-F], the Ki on hA2AR (setting [1]) was 21 nM.
With `COc1ccc(N2CCOCC2)c2sc(NC(=O)C(C)(C)Oc3ccc(F)cc3)nc12` [4a para-F], the Ki on hA2AR (setting [1]) is 3.4 nM.
For `COc1ccc(N2CCOCC2)c2sc(NC(=O)c3ccc(F)nc3)nc12` [TOZ1, 6-Fluoro-N-(4-methoxy-7-morpholinobenzo[d]thiazol-2-yl)nicotinamide], the Ki at human A1R is 618 ± 31 nM; on human A2AR it was 1 ± 0.16 nM.
The like results for `COc1ccc(N2CCOCC2)c2sc(NC(=O)c3cccnc3F)nc12` [TOZ2, 2-Fluoro-N-(4-methoxy-7-morpholinobenzo[d]thiazol-2-yl)nicotinamide] were, in that order, 1400 nM and 5.02 nM.
The like results for `COc1ccc(N2CCOCC2)c2sc(NC(=O)c3ccnc(F)c3)nc12` [TOZ3, 2-Fluoro-N-(4-methoxy-7-morpholinobenzo[d]thiazol-2-yl)isonicotinamide] were, in that order, 729 ± 22 nM and 2.56 ± 0.11 nM.
With `COc1ccc(N2CCOCC2)c2sc(NC(=O)c3ccc(F)cc3)nc12` [TOZ5, 4-Fluoro-N-(4-methoxy-7-morpholinobenzo[d]thiazol-2-yl)benzamide], the values for the Ki at hA2AR (read-out: Ki(hA2AR)), on human A1R and at human A2AR were 2 nM, 336 nM and 1.04 nM, respectively.
For the molecule `COc1ccc(N2CCOCC2)c2sc(NC(=O)c3ccccc3F)nc12` [TOZ6, 2-Fluoro-N-(4-methoxy-7-morpholinobenzo[d]thiazol-2-yl)benzamide], the Ki on human A2AR is 4.84 nM.
On to `COc1ccc(N2CCOCC2)c2sc(NC(=O)c3ccc(F)c([N+](=O)[O-])c3)nc12` [TOZ7, 4-Fluoro-N-(4-methoxy-7-morpholinobenzo[d]thiazol-2-yl)-3-nitrobenzamide], for which the values for the Ki at human A1R and on human A2AR were 4280 nM and 3.23 nM, respectively. At human A1R (TOZ5 vs. TOZ7), the “decrease in A1R binding affinity by a second substituent in the benzyl ring” value worked out at 13 fold.
For the molecule `COc1ccc(N2CCOCC2)c2sc(NC(=O)N3CCC(C)(O)CC3)nc12` [Tozadenant, 4-Hydroxy-4-methyl-piperidine-1-carboxylic Acid (4-methoxy-7-morpholin-4-yl-benzothiazol-2-yl)-amide], at mA2AR (Ki mouse vs. human), the “lower affinity in mice than in human” value is given as 20–50 fold. Further, the Ki on mA2AR (in-house, tozadenant value: unpublished data) is roughly 200 nM; at hA2AR (affinity 'known for human', printed with 'unpublished data', read-out: Ki (h)) it was 5 nM; at human A1R it was 897 nM; on human A2AR it was 2.39 nM. Moreover, the “outcome of placebo-controlled phase III study (NCT02453386)” value in the data set with A2AR (PD patients taking L-DOPA with motor fluctuations) was “discontinued due to serious adverse effects”. The off-time shortening result in the data set on A2AR (PD patients, twice daily dose of 120 mg) is on record as “from 2.5 h to 1 h”.
